Data from US10150765B2, “P2X7 modulators” (Janssen Pharmaceutica NV, priority 2013, dated 2018).

These compounds were tested against P2X7 (Homo sapiens (Human), UniProt Q99572) (assay: P2X7 antagonism in human PBMCs (LPS + Bz-ATP induced IL-1β release, ELISA)). Settings: 10 μM compound, LPS 30 ng/ml + 0.5 mM Bz-ATP.
Format: cell-based
Procedure: Human blood was collected using a blood donor program. PBMCs were isolated from blood using a Ficoll density gradient technique. Briefly, blood was laid on Ficoll solution and centrifuged at RT for 20 minutes at 2000 rpm. The buffy layer (between red blood cells and plasma) was carefully collected by aspiration, washed with PBS and centrifuged again at 1500 rpm for 15 minutes. The resulting cell pellet was washed and plated on 96 well-plates for experiments. […] Lipopolysaccharide (LPS) (30 ng/ml) was added to each well and incubated for 1 hour. Test compounds were then added and incubated for 30 minutes. The P2X7 agonist, 2′(3′)-O-(4-benzoylbenzoyl) adenosine 5′ triphosphate (Bz-ATP) was then added at a final concentration of 0.5 mM (PBMC) or 1 mM (blood). Cells were incubated for an additional 1.5 hours. At that point, supernatant was collected and stored for IL-1β assay using manufacturer's protocol for enzyme-linked immunosorbent assay (ELISA). Data was expressed as percent control, where control is defined as the difference in IL-1β release in LPS+Bz-ATP samples and LPS only samples. Data was plotted as response (% control) versus concentration to generate IC50 values.

Sequence of P2X7 (Q99572 whole entry): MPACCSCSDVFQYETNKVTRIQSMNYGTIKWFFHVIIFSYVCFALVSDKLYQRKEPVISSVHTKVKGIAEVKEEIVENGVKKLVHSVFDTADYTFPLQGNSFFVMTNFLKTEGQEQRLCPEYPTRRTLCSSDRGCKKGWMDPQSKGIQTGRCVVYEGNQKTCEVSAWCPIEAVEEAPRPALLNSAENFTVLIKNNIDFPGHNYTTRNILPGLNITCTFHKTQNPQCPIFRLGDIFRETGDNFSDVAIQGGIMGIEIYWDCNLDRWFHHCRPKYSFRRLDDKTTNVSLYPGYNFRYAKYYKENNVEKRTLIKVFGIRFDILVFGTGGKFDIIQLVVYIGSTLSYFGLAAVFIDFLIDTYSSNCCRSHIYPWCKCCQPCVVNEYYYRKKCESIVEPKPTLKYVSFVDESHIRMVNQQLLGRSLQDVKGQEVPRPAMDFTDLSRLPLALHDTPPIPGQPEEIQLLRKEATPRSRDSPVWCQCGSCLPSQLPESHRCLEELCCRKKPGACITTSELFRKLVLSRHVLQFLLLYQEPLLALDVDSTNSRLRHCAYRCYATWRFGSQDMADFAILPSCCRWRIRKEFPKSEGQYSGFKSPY

Q: For Cc1nc(-n2nnc3c2CCN(C(=O)c2cccc(C(F)(F)F)c2Cl)C3C)ncc1F (single isomer, unassigned) [Example 306, (S*)-(2-chloro-3-(trifluoromethyl)phenyl)(1-(5-fluoro-4-methylpyrimidin-2-yl)-4-methyl-6,7-dihydro-1H-[1,2,3]triazolo[4,5-c]pyridin-5(4H)-yl)methanone], which “PBMC 10 μM (% control)” value is on record?
A: 2.5 % control

Q: Which “PBMC 10 μM (% control)” value does the source give for CC1c2nnn(-c3ncccn3)c2CCN1C(=O)c1ccc(Cl)cc1Cl (stereo not drawn) [Example 283, (2,4-dichlorophenyl)(4-methyl-1-(pyrimidin-2-yl)-6,7-dihydro-1H-[1,2,3]triazolo[4,5-c]pyridin-5(4H)-yl)methanone] here?
A: −6.3 % control

Q: C[C@@H]1c2ncn(-c3ccccn3)c2CCN1C(=O)c1cccc(C(F)(F)F)c1F (single isomer, unassigned) [Example 42, (4R*)-5-{[2-Fluoro-3-(trifluoromethyl)phenyl]carbonyl}-4-methyl-1-pyridin-2-yl-4,5,6,7-tetrahydro-1H-imidazo[4,5-c]pyridine] was tested. Which “PBMC 10 μM (% control)” value did it give?
A: 5.8 % control

Q: With C[C@@H]1c2nnn(-c3ccc(F)cc3)c2C[C@H](C)N1C(=O)c1cccc(C(F)(F)F)c1Cl [Example 287, (2-chloro-3-(trifluoromethyl)phenyl)((4R,6 S)-1-(4-fluorophenyl)-4,6-dimethyl-6,7-dihydro-1H-[1,2,3]triazolo[4,5-c]pyridin-5(4H)-yl)methanone] as the compound, how does the “PBMC 10 μM (% control)” value read?
A: −4.1 % control

Q: With CC1c2nn(COCC[Si](C)(C)C)c(-c3ncc(F)cn3)c2CCN1C(=O)c1cccc(C(F)(F)F)c1Cl (stereo not drawn) [Example 303, (2-chloro-3-(trifluoromethyl)phenyl)(3-(5-fluoropyrimidin-2-yl)-7-methyl-2-((2-(trimethylsilyl)ethoxy)methyl)-4,5-dihydro-2H-pyrazolo[3,4-c]pyridin-6(7H)-yl)methanone] as the compound, how does the “PBMC 10 μM (% control)” value read?
A: −1.6 % control

Q: Which “PBMC 10 μM (% control)” value does the source give for Cc1cc(C)nc(-n2nnc3c2CCN(C(=O)c2cccc(C(F)(F)F)c2Cl)C3C)n1 (stereo not drawn) [Example 253, (2-Chloro-3-(trifluoromethyl)phenyl)(1-(4,6-dimethylpyrimidin-2-yl)-4-methyl-6,7-dihydro-1H-[1,2,3]triazolo[4,5-c]pyridin-5(4H)-yl)methanone] here?
A: −2.6 % control
